Laboratory results taken from PubChem BioAssay (NCI).
Several values for one entry are separate records, joined by “and”; a condition that tells them apart may be missing. Identical values can stand only once.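 Cells were grown in 96-well plates and exposed to each compound for 48 hours at five concentrations; endpoints were interpolated linearly between bracketing concentrations, or set to the highest concentration if not reached. The concentration for 50% growth inhibition is given as GI50. The concentration for full growth arrest is given as TGI.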

Key:
Assay in all cases: inhibition of tumour cell growth, NCI panel, 48 h
786-0 renal = tested on: 786-0 renal
A498 renal = tested on: A498 renal
HS 578T breast = tested on: HS 578T breast
M14 melanoma = tested on: M14 melanoma
RPMI-8226 leukemia = tested on: RPMI-8226 leukemia
U251 CNS = tested on: U251 CNS
UO-31 renal = tested on: UO-31 renal
NCI-H460 lung = tested on: NCI-H460 lung
OVCAR-3 ovarian = tested on: OVCAR-3 ovarian
SR leukemia = tested on: SR leukemia

Structure (SMILES)	GI50 (786-0 renal) [µM]	TGI (786-0 renal) [µM]	GI50 (A498 renal) [µM]	TGI (A498 renal) [µM]	GI50 (HS 578T breast) [µM]	TGI (HS 578T breast) [µM]	GI50 (M14 melanoma) [µM]	TGI (M14 melanoma) [µM]	GI50 (RPMI-8226 leukemia) [µM]	TGI (RPMI-8226 leukemia)	GI50 (U251 CNS) [µM]	TGI (U251 CNS) [µM]	GI50 (UO-31 renal) [µM]	TGI (UO-31 renal)	TGI (NCI-H460 lung) [µM]	TGI (OVCAR-3 ovarian)	TGI (SR leukemia) [µM]	GI50 (NCI-H460 lung) [µM]	GI50 (OVCAR-3 ovarian) [µM]	GI50 (SR leukemia) [µM]
COc1cc(-c2c(C#N)c(N)n3c(nc4ccccc43)c2C#N)cc(Br)c1OC	6.24	> 100	> 100	> 100	2.71	> 100	> 100	> 100	6.83	> 100 µM	4.47	> 100	4.13	> 100 µM	–	–	–	–	–	–
CC(=O)NC(CCCN)C(=O)NCc1ccccc1 (centres undefined)	–	> 100	–	> 100	–	–	–	> 100	–	> 100 µM	–	> 100	–	> 100 µM	> 100	> 100 µM	–	–	–	–
COc1cc(Cc2cc(OC)c(OC)c(OC)c2)ccc1O	–	> 100	–	–	–	–	–	> 100	–	> 100 µM	–	> 100	–	> 100 µM	–	52.4 µM	> 100	–	–	–
COC(=O)c1cc2c(c(C(=O)OC)c1O)C(=O)C=CC2=O	> 9.1	> 56.1	> 9.1	> 55.8	–	–	> 9.1	> 66.9	1.79	> 9.1 µM and 5.6 µM	> 9.1	> 55.8	> 9.1	> 56.9 µM	> 74.3	> 60.9 µM	> 22	> 9.1	> 9.1	–
CCc1cccc(C)c1NC(C)=O	–	> 100	–	> 100	–	–	–	> 100	–	> 100 µM	–	> 100	–	> 100 µM	> 100	> 100 µM	–	–	–	–
CCCCC/C=C/C/C=C/CCCCCCCC1=NC(C)(C)CN1C(C)C	2.24	5.12	2.35	15.5	1.84	3.67	1.85	3.4	–	–	1.53	2.87	1.21	2.45 µM	3.34	2.81 µM	–	1.82	1.49	–
Cc1ccc(C(=O)/C=C/c2ccccc2O)c(C)c1	–	> 100	–	> 100	–	–	–	> 100	–	> 100 µM	–	> 100	–	> 100 µM	> 100	> 100 µM	–	–	–	–
N#CCCN(CCC#N)c1ccc(/C=C2\N=C(CN3C(=O)c4ccccc4C3=O)OC2=O)cc1	–	> 100	–	> 100	–	–	–	> 100	–	> 100 µM	–	> 100	–	> 100 µM	> 100	> 100 µM	> 100	–	–	–
Cc1ccc(NC(=O)C2C(=O)N(c3ccc(C)c(C)c3)C(=O)/C2=N/O)cc1C (centres undefined)	–	> 100	–	> 100	–	–	–	> 100	–	> 100 µM	–	> 100	–	> 100 µM	> 100	> 100 µM	–	–	–	–
COC(=O)C(=O)C(C(=O)C=C(C)C)C(=O)C(=O)Nc1ccc(Cl)cc1C (centres undefined)	–	> 100	–	> 100	–	–	–	> 100	–	> 100 µM	–	> 100	–	> 100 µM	> 100	> 100 µM	45.2	–	–	–
CSc1ccc(/C=C2/C[N+](C)(C)C/C(=C/c3ccc(SC)cc3)C2=O)cc1	–	26.8	–	–	–	–	–	28.8	–	9.92 µM	–	7.92	–	> 100 µM	–	38.3 µM	71.7	–	–	–
N#CCCN(CCC#N)c1ccc(C(=O)NN)cc1	–	> 100	–	> 100	–	–	–	> 100	–	> 100 µM	–	> 100	–	> 100 µM	> 100	> 100 µM	–	–	–	–
CC(C)=CC(=O)N1CCN(C(=O)C=C(C)C)CC1	–	> 100	–	> 100	–	–	–	> 100	–	> 100 µM	–	> 100	–	> 100 µM	> 100	> 100 µM	> 100	–	–	–
NCCCNCCSSCCCCS(=O)O	–	> 100	–	> 100	–	–	–	44.2	–	> 100 µM	–	> 100	–	> 100 µM	> 100	44.8 µM	29.3	–	–	–
CCCCCCCCCCC(O)C1CCC(C2CCC(C(O)CCCCC(O)CCCCCC(O)CC3=CC(C)OC3=O)O2)O1 (centres undefined)	3.53	> 25	5.27	> 25	–	–	3.76	> 25	2	> 25 µM	5.65	> 25	1.74	9.95 µM and > 25 µM	> 25	9.65 µM and > 25 µM	> 25	10.7	2.16	–
Cc1cccc(C(C)(C)C)c1NC(=O)CCc1n[nH]c(=S)o1	–	> 100	–	> 100	–	–	–	> 100	–	51.6 µM	–	> 100	–	> 100 µM	> 100	> 100 µM	–	–	–	–
COC(=O)C(=O)C(C(=O)C(=O)Nc1ccc(C)cc1C)c1nc2ccccc2[nH]c1=O (centres undefined)	–	> 100	–	58.8	–	–	–	> 100	–	> 100 µM	–	> 100	–	> 100 µM	> 100	> 100 µM	> 100	–	–	–
CSc1nc(NC2OC(COC(C)=O)C(OC(C)=O)C(OC(C)=O)C2OC(C)=O)c2c(OC(C)=O)c(C)c(=O)oc2n1 (centres undefined)	–	> 100	–	> 100	–	–	–	> 100	–	> 100 µM	–	> 100	–	> 100 µM	> 100	> 100 µM	–	–	–	–
O=C(CC(=O)N1N=C(c2ccccc2)C(N=Nc2ccc(Cl)cc2)C1=O)Nc1ccccc1Cl (centres undefined)	–	26	–	–	–	–	–	> 100	–	> 100 µM	–	71.1	–	78 µM	> 100	71.4 µM	> 100	–	–	–
Cc1c2c(nn1-c1ccc(S(=O)(=O)/N=C3\SCC(=O)N3C(=O)c3ccccc3)cc1)-c1ccccc1CC2	28.9	77.9	–	–	–	–	22.9	47.1	–	–	23.3	62.4	67.4	> 100 µM	> 100	39.1 µM	> 100	47.5	15.8	69.9
CCCCn1c(-c2ccc(C(=O)O/N=C(\N)c3ccc(OC)cc3)cc2)nc(-c2ccccc2)c1-c1ccccc1	0.538	1.91	–	–	–	–	3.07	> 100	–	–	–	–	0.458	1.65 µM	3.87	–	–	1.84	–	–
